# System: NMNAT2
# Assay: NMNAT2-Hibit nano-luciferase activity in stably transfected U87MG cells, various concentrations, 24 hours
# Assay type: cell-based
# Conditions: U87MG cells stably transfected with NMNAT2-Hibit luc plasmid
# Experimental: Selected compounds were tested in vitro. U87MG cells were stably transfected with NMNAT2-Hibit luc plasmid. Cells were treated with a test compound at various concentrations for 24 hours. Cells were then collected and assayed for nano-luciferase activity.
row,SMILES,E: compound efficacy for NMNAT2 activation (concentration giving >25% increase in NMNAT2 luciferase activity)
1,Cc1ccccc1CNC(=O)C1CCCc2c1c1ccccc1n2Cc1cccc(F)c1 (stereo not shown) [BC20372],+ (“+” >25% increase in NMNAT2 luciferase activity at >25 μM.)
2,Cc1c(C)n(Cc2cccc(F)c2)c2ccc(C(=O)NC(C)Cc3ccco3)cc12 (stereo not shown) [BC20118],++ (“++” >25% increase in NMNAT2 luciferase activity at >1 μM ≤25 μM.)
3,CCCCN(CC)Cc1ccc(CNC(=O)CCc2c(C(F)F)n(Cc3cc(C)ccc3C)c3ccccc23)o1 [BC20406],+++ (“+++” >25% increase in NMNAT2 luciferase activity at ≤1 μM.)
4,Cc1ccccc1CNC(=O)c1ccc2c(c1)c(C)c(C)n2Cc1cccc(F)c1 [BC20113],++ (“++” >25% increase in NMNAT2 luciferase activity at >1 μM ≤25 μM.)
5,Cc1ccccc1Cn1cc(CCCC(=O)N(CCCN2CCOCC2)Cc2ccco2)c2ccccc21 [BC20157],+++ (“+++” >25% increase in NMNAT2 luciferase activity at ≤1 μM.)
6,Cc1ccc(Cn2c3c(c4ccccc42)C(C(=O)NCc2cccnc2)CCC3)cc1 (stereo not shown) [BC20389],++ (“++” >25% increase in NMNAT2 luciferase activity at >1 μM ≤25 μM.)
7,O=C(Cn1c2c(c3ccccc31)CC(C(=O)NCc1ccco1)CC2)NCCc1ccccc1 (stereo not shown) [BC20291],++ (“++” >25% increase in NMNAT2 luciferase activity at >1 μM ≤25 μM.)
8,Cc1cccc(Cn2cc(CCCC(=O)NC(C)Cc3ccco3)c3ccccc32)c1 (stereo not shown) [BC20171],+++ (“+++” >25% increase in NMNAT2 luciferase activity at ≤1 μM.)
9,O=C(NCCc1ccccc1)N1CCc2c(c3ccccc3n2Cc2cccc(F)c2)C1 [BC20311],+ (“+” >25% increase in NMNAT2 luciferase activity at >25 μM.)
10,CCCCN(CC)Cc1ccc(CNC(=O)c2ccc3c(c2)c(C)c(C)n3Cc2cccc(F)c2)o1 [BC20120],+++ (“+++” >25% increase in NMNAT2 luciferase activity at ≤1 μM.)
11,O=C(NCc1cccc(F)c1)C1CCCc2c1c1ccccc1n2Cc1cccc(F)c1 (stereo not shown) [BC20371],++ (“++” >25% increase in NMNAT2 luciferase activity at >1 μM ≤25 μM.)
12,Cc1cccc(Cn2cc(CCCC(=O)NCCc3ccccc3)c3ccccc32)c1 [BC20172],++ (“++” >25% increase in NMNAT2 luciferase activity at >1 μM ≤25 μM.)
13,CCCCN(CC)Cc1ccc(CNC(=O)c2ccc3c(c2)c(C)c(C)n3Cc2ccccc2F)o1 [BC20198],+++ (“+++” >25% increase in NMNAT2 luciferase activity at ≤1 μM.)
14,Cc1ccc(C)c(Cn2cc([C@H]3C[C@@H]3C(=O)NCc3ccncc3)c3ccccc32)c1 (racemic) [BC20352],+ (“+” >25% increase in NMNAT2 luciferase activity at >25 μM.)
15,Cc1ccccc1Cn1c(C)c(C)c2cc(C(=O)N3CCN(C(=O)c4ccco4)CC3)ccc21 [BC20206],+ (“+” >25% increase in NMNAT2 luciferase activity at >25 μM.)
16,Cc1ccc(C)c(Cn2cc3c4c(cccc42)C(=O)N(CCOc2ccccc2)CC3)c1 [BC20343],+ (“+” >25% increase in NMNAT2 luciferase activity at >25 μM.)
17,Cc1c(C)n(Cc2ccccc2F)c2ccc(C(=O)NCc3cccc(F)c3)cc12 [BC20104],++ (“++” >25% increase in NMNAT2 luciferase activity at >1 μM ≤25 μM.)

row,SMILES,E: compound efficacy for NMNAT2 activation (concentration giving >25% increase in NMNAT2 luciferase activity)
1,Cc1ccccc1CN1CCC(c2cn(Cc3cccc(F)c3)c3ccccc23)CC1=O (stereo not shown) [BC20320],+ (“+” >25% increase in NMNAT2 luciferase activity at >25 μM.)
2,Cc1cccc(CNC(=O)C2CCc3c(c4ccccc4n3Cc3cccc(F)c3)C2)c1 (stereo not shown) [BC20224],+ (“+” >25% increase in NMNAT2 luciferase activity at >25 μM.)
3,Cc1cccc(NC(=O)N2CCc3c(c4ccccc4n3Cc3cccc(F)c3)C2)c1C [BC20312],+ (“+” >25% increase in NMNAT2 luciferase activity at >25 μM.)
4,COc1cccc(CNC(=O)C2CCCc3c2c2ccccc2n3Cc2ccc(C)cc2)c1 (stereo not shown) [BC20387],+ (“+” >25% increase in NMNAT2 luciferase activity at >25 μM.)
5,Cc1cccc(CNC(=O)CCc2c(C(F)F)n(Cc3cc(C)ccc3C)c3ccccc23)c1 [BC20396],++ (“++” >25% increase in NMNAT2 luciferase activity at >1 μM ≤25 μM.)
6,Cc1ccc(C)c(Cn2cc([C@H]3C[C@@H]3C(=O)NCc3ccccc3C)c3ccccc32)c1 (racemic) [BC20347],++ (“++” >25% increase in NMNAT2 luciferase activity at >1 μM ≤25 μM.)
7,Cc1ccccc1CNC(=O)CCCc1cn(Cc2ccccc2C)c2ccccc12 [BC20153],++ (“++” >25% increase in NMNAT2 luciferase activity at >1 μM ≤25 μM.)
8,O=C1NCCc2cn(Cc3cccc(F)c3)c3cccc1c23 [BC20315],+ (“+” >25% increase in NMNAT2 luciferase activity at >25 μM.)
9,Cc1cccc(NC(=O)CCCc2cn(Cc3ccccc3F)c3ccccc23)c1C [BC20134],++ (“++” >25% increase in NMNAT2 luciferase activity at >1 μM ≤25 μM.)
10,COc1ccc(CN2CC(C(=O)c3cn(Cc4ccccc4F)c4ccccc34)CC2=O)c(OC)c1 (stereo not shown) [BC20304],+ (“+” >25% increase in NMNAT2 luciferase activity at >25 μM.)
11,O=C(NCc1cccc(F)c1)C1CCc2c(c3ccccc3n2Cc2ccncc2)C1 (stereo not shown) [BC20316],+ (“+” >25% increase in NMNAT2 luciferase activity at >25 μM.)
12,O=C1CC(c2cn(Cc3cccc(F)c3)c3ccccc23)CCN1 (stereo not shown) [BC20339],+ (“+” >25% increase in NMNAT2 luciferase activity at >25 μM.)
13,O=C(CCCc1cn(Cc2ccccc2F)c2ccccc12)N1CCN(C(=O)c2ccco2)CC1 [BC20129],++ (“++” >25% increase in NMNAT2 luciferase activity at >1 μM ≤25 μM.)
14,Cc1cccc(CNC(=O)c2ccc3c(c2)c(C)c(C)n3Cc2ccccc2C)c1 [BC20204],++ (“++” >25% increase in NMNAT2 luciferase activity at >1 μM ≤25 μM.)
15,Cc1ccc(C)c(Cn2c3c(c4ccccc42)CC(C(=O)NCc2cccc(F)c2)CC3)c1 (stereo not shown) [BC20184],+ (“+” >25% increase in NMNAT2 luciferase activity at >25 μM.)
16,COc1ccccc1CNC(=O)C1CCc2c(c3ccccc3n2Cc2cccc(F)c2)C1 (stereo not shown) [BC20225],+ (“+” >25% increase in NMNAT2 luciferase activity at >25 μM.)
17,CCCCN(CC)Cc1ccc(CNC(=O)C2CCCc3c2c2ccccc2n3Cc2cccc(F)c2)o1 (stereo not shown) [BC20381],++ (“++” >25% increase in NMNAT2 luciferase activity at >1 μM ≤25 μM.)
